{"source": "ChEMBL document CHEMBL5465560", "about": "“Selectivity Literature for EUbOPEN Chemogenomic Library” (2024)", "key": {"[1]": {"target": "T1, Serine/threonine-protein kinase Nek5 (Homo sapiens) (UniProt Q6P3R8)", "T1 sequence (whole entry)": "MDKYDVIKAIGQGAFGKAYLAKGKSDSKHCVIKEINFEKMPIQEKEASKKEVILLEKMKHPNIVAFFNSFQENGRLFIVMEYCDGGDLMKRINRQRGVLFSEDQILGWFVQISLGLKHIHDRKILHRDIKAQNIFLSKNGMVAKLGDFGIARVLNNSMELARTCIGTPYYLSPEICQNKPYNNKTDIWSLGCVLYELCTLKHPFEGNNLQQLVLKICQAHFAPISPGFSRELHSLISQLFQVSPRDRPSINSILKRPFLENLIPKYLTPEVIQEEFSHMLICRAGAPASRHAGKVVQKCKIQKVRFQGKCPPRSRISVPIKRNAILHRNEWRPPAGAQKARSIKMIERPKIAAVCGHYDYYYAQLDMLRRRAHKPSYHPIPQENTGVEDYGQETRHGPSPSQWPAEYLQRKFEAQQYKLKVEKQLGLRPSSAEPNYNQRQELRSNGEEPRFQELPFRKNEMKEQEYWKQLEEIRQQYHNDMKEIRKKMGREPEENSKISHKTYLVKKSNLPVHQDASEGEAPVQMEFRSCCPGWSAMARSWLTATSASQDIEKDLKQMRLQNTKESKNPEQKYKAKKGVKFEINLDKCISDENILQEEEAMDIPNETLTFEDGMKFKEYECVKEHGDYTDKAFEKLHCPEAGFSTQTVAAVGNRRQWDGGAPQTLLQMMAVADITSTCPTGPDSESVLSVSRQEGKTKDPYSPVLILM", "assay": "Selectivity interaction (KinomeScan (DiscoverX)) EUB0000666a NEK5", "settings": "at 10 µM"}, "[2]": {"target": "Tyrosine-protein kinase SYK (Homo sapiens, UniProt P43405)", "assay": "Selectivity interaction (KinomeScan (DiscoverX)) EUB0000666a SYK", "settings": "at 10 µM"}, "[3]": {"tested_on": "Serine/threonine-protein kinase B-raf (Homo sapiens), P15056 [V600E]", "settings": "at 10 µM"}, "[4]": {"target": "T2, Non-receptor tyrosine-protein kinase TNK1 (Homo sapiens) (UniProt Q13470)", "T2 sequence (whole entry)": "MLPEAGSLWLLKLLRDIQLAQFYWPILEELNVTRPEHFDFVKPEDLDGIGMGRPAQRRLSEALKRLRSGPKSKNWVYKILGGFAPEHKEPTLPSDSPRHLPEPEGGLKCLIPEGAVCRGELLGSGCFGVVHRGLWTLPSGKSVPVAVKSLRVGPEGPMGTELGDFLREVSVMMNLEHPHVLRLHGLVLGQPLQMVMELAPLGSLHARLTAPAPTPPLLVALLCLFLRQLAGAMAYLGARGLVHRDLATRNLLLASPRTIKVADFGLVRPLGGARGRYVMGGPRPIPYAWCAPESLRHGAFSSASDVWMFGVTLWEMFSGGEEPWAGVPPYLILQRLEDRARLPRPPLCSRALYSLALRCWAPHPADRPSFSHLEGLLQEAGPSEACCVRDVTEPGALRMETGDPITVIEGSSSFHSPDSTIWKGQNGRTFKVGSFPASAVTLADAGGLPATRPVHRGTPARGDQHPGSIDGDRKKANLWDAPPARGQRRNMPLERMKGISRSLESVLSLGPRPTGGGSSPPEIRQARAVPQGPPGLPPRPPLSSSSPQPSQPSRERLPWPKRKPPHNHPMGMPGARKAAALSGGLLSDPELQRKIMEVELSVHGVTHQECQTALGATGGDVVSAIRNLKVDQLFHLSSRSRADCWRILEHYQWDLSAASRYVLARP", "assay": "Selectivity interaction (KinomeScan (DiscoverX)) EUB0001049a TNK1", "settings": "at 1 µM"}, "[5]": {"target": "Protein kinase C eta type (Homo sapiens) (UniProt P24723)", "sequence (P24723 whole entry)": "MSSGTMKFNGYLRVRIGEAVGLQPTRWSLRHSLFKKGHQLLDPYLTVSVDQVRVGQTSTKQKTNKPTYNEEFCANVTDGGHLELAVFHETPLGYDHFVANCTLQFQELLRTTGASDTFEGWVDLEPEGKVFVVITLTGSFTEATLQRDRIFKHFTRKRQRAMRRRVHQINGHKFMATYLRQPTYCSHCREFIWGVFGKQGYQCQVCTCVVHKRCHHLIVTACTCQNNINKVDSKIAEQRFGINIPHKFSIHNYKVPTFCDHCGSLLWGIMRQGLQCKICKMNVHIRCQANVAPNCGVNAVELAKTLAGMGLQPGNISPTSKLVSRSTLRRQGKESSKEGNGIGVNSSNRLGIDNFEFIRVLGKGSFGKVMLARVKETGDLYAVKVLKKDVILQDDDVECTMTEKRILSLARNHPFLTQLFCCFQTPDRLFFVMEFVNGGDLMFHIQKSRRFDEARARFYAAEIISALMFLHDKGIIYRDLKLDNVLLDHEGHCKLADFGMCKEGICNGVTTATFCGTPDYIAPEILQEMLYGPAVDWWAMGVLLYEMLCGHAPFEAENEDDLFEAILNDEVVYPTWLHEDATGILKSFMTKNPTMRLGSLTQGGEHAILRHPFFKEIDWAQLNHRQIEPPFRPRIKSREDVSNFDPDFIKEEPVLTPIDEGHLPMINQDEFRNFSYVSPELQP", "assay": "Selectivity interaction (Kinase screening (Nanosyn)) EUB0000604a PRKCH"}, "[6]": {"target": "Tyrosine-protein kinase Yes (Homo sapiens) (UniProt P07947)", "sequence (P07947 2-543 limits assumed)": "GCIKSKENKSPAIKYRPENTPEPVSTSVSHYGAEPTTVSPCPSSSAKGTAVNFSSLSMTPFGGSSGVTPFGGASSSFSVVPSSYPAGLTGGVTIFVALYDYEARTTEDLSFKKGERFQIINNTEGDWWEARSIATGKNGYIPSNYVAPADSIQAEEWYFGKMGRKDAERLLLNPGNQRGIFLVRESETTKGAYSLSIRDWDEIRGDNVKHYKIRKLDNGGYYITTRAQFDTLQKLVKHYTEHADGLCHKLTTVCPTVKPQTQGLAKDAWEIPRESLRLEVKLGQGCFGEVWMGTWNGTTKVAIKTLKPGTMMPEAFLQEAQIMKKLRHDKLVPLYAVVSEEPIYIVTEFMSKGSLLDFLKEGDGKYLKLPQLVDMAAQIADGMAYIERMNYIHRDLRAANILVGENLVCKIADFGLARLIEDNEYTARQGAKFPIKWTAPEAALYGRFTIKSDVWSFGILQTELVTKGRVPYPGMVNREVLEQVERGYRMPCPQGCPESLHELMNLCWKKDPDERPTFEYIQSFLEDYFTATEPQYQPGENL", "assay": "Selectivity interaction (Millipore kinase profiler) EUB0000124b YES1", "settings": "at 10 µM"}, "[7]": {"target": "aryl hydrocarbon receptor (AHR) (Homo sapiens, UniProt P35869)", "sequence (P35869 whole entry)": "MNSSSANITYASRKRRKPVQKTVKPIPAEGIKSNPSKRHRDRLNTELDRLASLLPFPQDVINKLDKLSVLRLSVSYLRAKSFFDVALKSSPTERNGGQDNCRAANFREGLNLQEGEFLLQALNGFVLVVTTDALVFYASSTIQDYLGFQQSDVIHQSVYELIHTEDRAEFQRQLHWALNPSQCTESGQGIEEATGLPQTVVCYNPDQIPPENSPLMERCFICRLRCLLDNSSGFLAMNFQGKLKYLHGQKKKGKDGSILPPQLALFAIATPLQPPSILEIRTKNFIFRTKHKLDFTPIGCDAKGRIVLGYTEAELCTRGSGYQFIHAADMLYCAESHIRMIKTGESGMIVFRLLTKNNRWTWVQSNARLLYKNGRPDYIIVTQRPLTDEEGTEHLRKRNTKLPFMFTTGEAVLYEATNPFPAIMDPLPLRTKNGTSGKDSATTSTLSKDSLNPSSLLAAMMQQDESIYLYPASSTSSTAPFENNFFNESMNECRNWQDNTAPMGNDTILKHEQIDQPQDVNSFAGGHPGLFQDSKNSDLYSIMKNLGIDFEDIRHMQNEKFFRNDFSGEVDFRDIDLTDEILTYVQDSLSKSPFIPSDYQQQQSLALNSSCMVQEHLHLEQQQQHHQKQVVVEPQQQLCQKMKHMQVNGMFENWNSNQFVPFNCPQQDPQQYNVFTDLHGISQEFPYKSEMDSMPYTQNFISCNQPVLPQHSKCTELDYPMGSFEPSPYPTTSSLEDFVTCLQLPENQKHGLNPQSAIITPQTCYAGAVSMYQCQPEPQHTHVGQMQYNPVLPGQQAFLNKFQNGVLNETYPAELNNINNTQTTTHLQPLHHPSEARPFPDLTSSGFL", "assay": "Selectivity interaction (Panel of kinases, GPCRs, ion channels and transporters (enzymatic assay)) EUB0000223bCl AHR"}, "[8]": {"target": "Casein kinase I isoform gamma-2 (Homo sapiens) (UniProt P78368)", "sequence (P78368 whole entry, looked up, canonical isoform)": "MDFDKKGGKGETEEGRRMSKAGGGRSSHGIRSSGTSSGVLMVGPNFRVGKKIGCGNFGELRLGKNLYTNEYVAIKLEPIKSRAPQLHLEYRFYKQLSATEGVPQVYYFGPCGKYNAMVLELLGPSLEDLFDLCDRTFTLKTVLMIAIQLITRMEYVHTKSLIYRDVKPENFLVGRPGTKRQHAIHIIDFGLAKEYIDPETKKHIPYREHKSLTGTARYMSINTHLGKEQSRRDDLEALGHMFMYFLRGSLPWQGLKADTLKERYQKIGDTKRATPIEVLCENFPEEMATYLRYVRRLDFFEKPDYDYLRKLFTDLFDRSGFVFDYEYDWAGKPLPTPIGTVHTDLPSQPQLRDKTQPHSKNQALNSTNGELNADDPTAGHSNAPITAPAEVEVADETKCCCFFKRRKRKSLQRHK", "assay": "Selectivity interaction (KinomeScan (DiscoverX)) EUB0000655a CSNK1G2", "settings": "at 10 µM"}, "[9]": {"target": "Non-receptor tyrosine-protein kinase TYK2 (Homo sapiens, UniProt P29597)", "sequence (P29597 whole entry)": "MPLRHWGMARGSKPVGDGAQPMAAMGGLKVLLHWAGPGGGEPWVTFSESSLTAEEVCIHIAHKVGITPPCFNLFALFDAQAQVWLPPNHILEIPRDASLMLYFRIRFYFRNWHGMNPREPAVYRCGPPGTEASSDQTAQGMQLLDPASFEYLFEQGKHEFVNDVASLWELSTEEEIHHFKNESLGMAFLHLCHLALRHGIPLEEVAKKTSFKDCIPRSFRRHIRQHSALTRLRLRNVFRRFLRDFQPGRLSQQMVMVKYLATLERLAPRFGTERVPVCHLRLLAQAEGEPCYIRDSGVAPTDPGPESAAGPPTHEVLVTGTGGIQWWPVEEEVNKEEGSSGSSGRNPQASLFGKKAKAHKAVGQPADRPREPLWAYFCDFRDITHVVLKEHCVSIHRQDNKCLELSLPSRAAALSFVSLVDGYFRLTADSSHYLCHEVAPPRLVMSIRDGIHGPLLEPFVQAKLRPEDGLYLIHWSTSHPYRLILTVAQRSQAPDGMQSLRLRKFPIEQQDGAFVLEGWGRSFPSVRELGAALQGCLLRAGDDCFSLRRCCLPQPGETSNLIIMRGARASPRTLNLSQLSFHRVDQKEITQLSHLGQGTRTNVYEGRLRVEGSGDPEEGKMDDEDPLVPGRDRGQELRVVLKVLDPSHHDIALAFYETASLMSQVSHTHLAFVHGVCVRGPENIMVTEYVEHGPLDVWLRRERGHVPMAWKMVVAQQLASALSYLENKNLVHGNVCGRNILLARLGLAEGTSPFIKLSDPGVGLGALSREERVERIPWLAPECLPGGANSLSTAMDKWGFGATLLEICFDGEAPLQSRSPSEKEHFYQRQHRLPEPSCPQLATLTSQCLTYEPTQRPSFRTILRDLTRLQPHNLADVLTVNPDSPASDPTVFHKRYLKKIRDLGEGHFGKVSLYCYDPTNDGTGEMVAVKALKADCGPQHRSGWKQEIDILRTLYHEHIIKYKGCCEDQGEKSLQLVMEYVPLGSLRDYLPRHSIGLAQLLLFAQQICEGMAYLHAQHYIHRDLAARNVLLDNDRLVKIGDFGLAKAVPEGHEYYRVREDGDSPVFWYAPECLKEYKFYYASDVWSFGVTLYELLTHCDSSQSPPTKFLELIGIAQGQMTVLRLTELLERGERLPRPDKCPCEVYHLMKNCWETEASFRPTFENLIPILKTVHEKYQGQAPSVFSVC", "assay": "Selectivity interaction (KinomeScan (DiscoverX)) EUB0000655a TYK2", "settings": "at 10 µM"}, "[10]": {"tested_on": "Tyrosine-protein kinase ABL1 (Homo sapiens), P00519 [F317L]", "sequence (P00519 whole entry F317L)": "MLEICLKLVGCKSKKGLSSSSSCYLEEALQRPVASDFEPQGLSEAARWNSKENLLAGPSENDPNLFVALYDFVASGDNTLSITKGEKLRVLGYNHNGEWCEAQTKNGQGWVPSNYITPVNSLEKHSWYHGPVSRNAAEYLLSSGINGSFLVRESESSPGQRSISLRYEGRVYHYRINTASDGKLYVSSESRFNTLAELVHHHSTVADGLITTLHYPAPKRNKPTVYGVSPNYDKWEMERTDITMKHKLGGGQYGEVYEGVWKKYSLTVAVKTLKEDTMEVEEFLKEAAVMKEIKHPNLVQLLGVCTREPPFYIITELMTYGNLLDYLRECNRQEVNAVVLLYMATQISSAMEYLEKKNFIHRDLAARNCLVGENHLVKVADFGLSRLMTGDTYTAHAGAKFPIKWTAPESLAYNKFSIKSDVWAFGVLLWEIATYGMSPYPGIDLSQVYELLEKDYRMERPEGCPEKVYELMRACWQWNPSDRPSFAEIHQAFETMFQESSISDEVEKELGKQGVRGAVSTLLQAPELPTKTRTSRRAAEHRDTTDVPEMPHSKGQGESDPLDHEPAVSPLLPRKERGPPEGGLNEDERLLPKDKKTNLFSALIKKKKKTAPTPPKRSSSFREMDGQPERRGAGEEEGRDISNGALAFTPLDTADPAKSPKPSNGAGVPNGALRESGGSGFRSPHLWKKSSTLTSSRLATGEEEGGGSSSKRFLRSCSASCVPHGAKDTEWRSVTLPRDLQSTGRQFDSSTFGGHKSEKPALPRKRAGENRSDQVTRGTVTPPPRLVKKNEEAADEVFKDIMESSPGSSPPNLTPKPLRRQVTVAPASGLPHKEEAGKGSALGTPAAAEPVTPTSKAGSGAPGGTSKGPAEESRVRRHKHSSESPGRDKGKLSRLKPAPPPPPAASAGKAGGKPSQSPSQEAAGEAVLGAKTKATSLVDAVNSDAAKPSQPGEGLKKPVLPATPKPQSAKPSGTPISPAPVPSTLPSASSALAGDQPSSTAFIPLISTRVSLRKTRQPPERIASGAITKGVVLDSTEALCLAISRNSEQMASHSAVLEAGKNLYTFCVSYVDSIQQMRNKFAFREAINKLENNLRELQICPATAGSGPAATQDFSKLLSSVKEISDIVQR", "assay": "Selectivity interaction (KinomeScan (DiscoverX)) EUB0000045b ABL1", "settings": "at 1 µM"}, "[11]": {"target": "Tyrosine-protein kinase Lck (Homo sapiens, UniProt P06239)", "assay": "Selectivity interaction (KinomeScan (DiscoverX)) EUB0001079a LCK", "settings": "at 1 µM"}, "[12]": {"target": "T3, Uncharacterized serine/threonine-protein kinase SBK3 (Homo sapiens) (UniProt P0C264)", "T3 sequence (whole entry)": "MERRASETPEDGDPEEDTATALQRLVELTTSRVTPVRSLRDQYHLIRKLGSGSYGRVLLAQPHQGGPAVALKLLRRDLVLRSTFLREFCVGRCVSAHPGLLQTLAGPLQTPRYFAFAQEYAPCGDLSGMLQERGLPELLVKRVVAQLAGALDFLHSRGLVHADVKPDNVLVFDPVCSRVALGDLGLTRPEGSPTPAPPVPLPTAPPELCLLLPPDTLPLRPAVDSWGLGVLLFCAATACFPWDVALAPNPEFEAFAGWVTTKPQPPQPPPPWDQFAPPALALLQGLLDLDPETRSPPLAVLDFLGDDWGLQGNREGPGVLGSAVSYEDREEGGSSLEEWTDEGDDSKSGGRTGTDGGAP", "settings": "at 10 µM"}, "[13]": {"target": "T4, MAP kinase-activated protein kinase 5 (Homo sapiens) (UniProt Q8IW41)", "T4 sequence (whole entry)": "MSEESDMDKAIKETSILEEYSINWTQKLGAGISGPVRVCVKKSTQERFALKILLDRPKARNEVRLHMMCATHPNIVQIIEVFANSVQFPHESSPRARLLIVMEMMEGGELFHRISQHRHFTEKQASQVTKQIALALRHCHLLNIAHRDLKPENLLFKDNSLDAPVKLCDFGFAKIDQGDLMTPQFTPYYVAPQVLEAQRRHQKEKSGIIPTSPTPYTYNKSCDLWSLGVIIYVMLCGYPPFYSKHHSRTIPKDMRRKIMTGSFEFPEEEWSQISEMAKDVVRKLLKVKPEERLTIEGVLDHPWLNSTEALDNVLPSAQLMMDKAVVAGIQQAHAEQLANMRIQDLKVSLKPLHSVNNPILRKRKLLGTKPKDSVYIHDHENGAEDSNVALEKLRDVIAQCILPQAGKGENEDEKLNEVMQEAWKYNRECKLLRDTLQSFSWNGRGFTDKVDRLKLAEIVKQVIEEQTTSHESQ", "assay": "Selectivity interaction (KinomeScan (DiscoverX)) EUB0000618a MAPKAPK5", "settings": "at 10 µM"}}}
{"compound": "O=C(NOC[C@H](O)CO)c1ccc(F)c(F)c1Nc1ccc(I)cc1F", "values": [{"measurement": "% of control", "setting": "[1]", "result": 78, "unit": "%"}, {"measurement": "% of control", "setting": "[2]", "result": 100, "unit": "%"}]}
{"compound": "CCN(CC)CCCCNc1ncc2cc(-c3cc(OC)cc(OC)c3)c(NC(=O)NC(C)(C)C)nc2n1", "values": [{"measurement": "% of control", "setting": "[3]", "result": 100, "unit": "%"}]}
{"compound": "COc1cc(Nc2nc(C)cc(-c3cnn4nc(OC)ccc34)n2)cc(C(F)(F)F)c1", "values": [{"measurement": "% of control", "setting": "[4]", "result": 80, "unit": "%"}]}
{"compound": "Cc1cnc(Nc2ccc(F)cc2Cl)nc1-c1c[nH]c(C(=O)N[C@H](CO)c2cccc(Cl)c2)c1", "values": [{"measurement": "% of inhibition", "setting": "[5]", "result": 2, "unit": "%"}]}
{"compound": "CC(=O)Nc1cccc(-n2c(=O)n(C3CC3)c(=O)c3c(Nc4ccc(I)cc4F)n(C)c(=O)c(C)c32)c1", "values": [{"measurement": "% of control", "setting": "[6]", "result": 104, "unit": "%"}]}
{"compound": "COc1cc(C(=O)N2CC[C@@H](O)[C@@H](N)C2)cc2nc(-c3cc4ccccc4n3CC3CC3)n(C)c12", "values": [{"measurement": "XC50", "setting": "[7]", "result": 79.4, "unit": "µM"}]}
{"compound": "CN(C)CCOc1ccc(-c2nc(-c3ccncc3)c(-c3ccc4c(c3)CC/C4=N\\O)[nH]2)cc1", "values": [{"measurement": "% of control", "setting": "[8]", "result": 72, "unit": "%"}, {"measurement": "% of control", "setting": "[9]", "result": 52, "unit": "%"}]}
{"compound": "C=CC(=O)Nc1cc(-n2c(=O)ccc3cnc4ccc(-c5ccc(NS(C)(=O)=O)cc5)cc4c32)ccc1C", "values": [{"measurement": "% of control", "setting": "[10]", "result": 100, "unit": "%"}]}
{"compound": "Nc1cnc(N2CCc3cc(S(=O)(=O)Nc4c(F)cc(Cl)cc4F)cc(N4CCCC4=O)c32)nc1", "note": "[TP-020n]", "values": [{"measurement": "% of control", "setting": "[11]", "result": 100, "unit": "%"}]}
{"compound": "Cc1cc([C@@H](C)Nc2ccccc2C(=O)O)c2nc(N3CCOCC3)cc(=O)n2c1", "note": "[AZD-6482]", "values": [{"measurement": "% of control", "setting": "[12]", "result": 100, "unit": "%"}]}
{"compound": "O[C@H]1CC[C@H](Nc2ncc3nc(Nc4c(F)cc(F)cc4F)n([C@H]4CCOC4)c3n2)CC1", "values": [{"measurement": "% of control", "setting": "[13]", "result": 100, "unit": "%"}]}
